For one assay, the target named is T1, mu receptor (Rattus norvegicus, UniProt P33535).
T1 construct: rat whole brain minus cerebellum for mu was homogenized; from tissue; host or cells: brain of male Sprague Dawley rats, whole brain minus cerebellum, homogenate fraction
Briefly: opioid receptor binding assay, [3H] NAL (tritiated naloxone), mu receptor. The arrangement: species or system rat (Male Sprague Dawley), brain minus cerebellum. Here is the method:
This assay was conducted by the following procedure.
Male Sprague Dawley rats for mu site experiments were sacrificed via decapitation and the brains were removed. The brain tissue, rat whole brain minus cerebellum for mu was homogenized in a Teflon and glass tissue homogenizer. A supernatant I, pellet IV, fraction was frozen in a nitrogen freezer at 1.33 g/ml concentration and stored for not longer than five weeks prior to use. Pellets were rehydrated with physiological buffer prior to use.
The reaction was initiated by the addition of the resuspended tissue which had been preincubated at 37° C. for 20 minutes. The reaction mixture was incubated in a 37° C. water bath for 20 minutes. The reaction was terminated by rapid filtration, (Brandel Cell Harvestor), through Whatman GF/B glass filters that had been presoaked in Krebs-Hepes buffer pH 7.4. The filters were then washed 2x with 5 ml of ice cold Krebs-Hepes buffer pH 7.4. Washed filters were placed in scintillation vials and 10 ml RedySolv, (Brandel), was added and samples counted in a Searle D-300 beta counter. Means and standard error statistics were calculated for triplicate experimental determinations in certain cases. The incubation time for the reaction mixture was 20 minutes at 37° C.
Ki values were calculated using a minitab statistical program according to the following formula: [formula] wherein IC50 is the concentration at which 50% of the ^3 H ligand is displaced by the test compounds and KD is the dissociation constant for the ^3 H ligand at the receptor site. KD can be determined as described by Bennett, "Methods in Binding Studies", Neurotransmitter Receptor Binding, Yamamura, et al., ed., p. 57-90, Raven Press, N.Y. (1978) incorporated herein by reference.
In the Table, column 1 sets forth the Example Number of the compound evaluated, column 2 the Ki value in nanomolar (nM) at the mu receptor and columns 3 and 4 the percent displacement by the test compound at the indicated concentration, i.e., 10 nm or 100 nm.

The target of assay [1] is T2, peripheral opioid receptors (Mus musculus, UniProt P42866).
T2 construct: Mice maintained (6 mice/cage) on 0.01M saccharin water with 1 g/1 morphine sulfate; from tissue; host or cells: living morphine-maintained mice (in vivo test; endogenous receptor)
T2 sequence (P42866 whole entry): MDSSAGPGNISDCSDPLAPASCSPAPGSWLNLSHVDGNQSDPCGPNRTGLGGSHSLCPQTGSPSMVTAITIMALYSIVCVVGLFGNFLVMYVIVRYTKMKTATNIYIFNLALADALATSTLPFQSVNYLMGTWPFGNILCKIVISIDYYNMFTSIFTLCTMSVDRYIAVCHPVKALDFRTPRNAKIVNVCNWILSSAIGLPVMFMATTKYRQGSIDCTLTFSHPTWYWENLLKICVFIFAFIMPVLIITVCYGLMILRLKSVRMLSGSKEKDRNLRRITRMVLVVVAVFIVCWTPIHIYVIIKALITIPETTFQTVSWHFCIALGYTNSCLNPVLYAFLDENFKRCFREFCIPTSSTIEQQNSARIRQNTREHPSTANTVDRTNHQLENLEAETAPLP
Nature of the assay: precipitated diarrhea in morphine-maintained mice (peripheral opioid activity) and comparison with the writhing test. The format is in vivo. To be noted: for Ratio (AD50 mouse writhing test / ED50 mouse diarrhea test): higher ratio = greater relative antagonism of peripheral opioid receptors; for ED50: mouse, 0.5 h; for ED50 / ED50 (diarrhea): morphine-maintained mice, antagonist subcutaneous or oral, 30 min observation; for ED50 (diarrhea): 30 min. Details: ED50 (diarrhea): unit not given beside the values. Here is the method:
Determinations of peripheral opioid activity were conducted. Mice maintained (6 mice/cage) on 0.01M saccharin water with 1 g/1 morphine sulfate for a minimum of 10 days with mice averaging 3.0^+ g water/mouse/day for at least three days are used as subjects. The morphine water was removed 45 min. prior to injection with the proposed opioid antagonist. Initial testing consisted of 5 mice/dose of compound. The antagonist was given by the subcutaneous or oral, route of administration,and the mice were placed in 11-14"×4 7/12 I.D. clear plastic cylinders with white paper towels used for a floor.
The mice were then monitored visually for 30 minutes post-injection for the presence of jumping and of diarrhea. Jumping was scored as positive if at least one jump occurred in 30 min. Diarrhea was scored as positive when feces were moist enough to stain the white paper at the base of the cylinder. After 30 minutes of testing, the mice were placed back in original cages, put back on morphine water, and not tested again for 48 hrs. Lower doses of the antagonist compounds were tested until threshold doses for diarrhea were determined. Diarrhea is a peripherally mediated sign of precipitated opiate abstinence.
The extent of the effect on peripheral activity compared to central activity of the present compounds can-be determined by comparing the AD50 for the mouse writhing test with the ED50 for the mouse diarrhea test. The higher the ratio, the greater the relative antagonism of the peripheral opioid receptors by a particular compound.

Another assay concerns the target T3, opioid receptor (Mus musculus, UniProt P42866).
T3 construct: Five CF-1 male mice (Charles River, Portage, Mich.); from tissue; host or cells: living CF-1 male mice (in vivo test; endogenous receptor)
Briefly: mouse writhing analgesis test: block of morphine-induced analgesia. The format is in vivo, CF-1 male mice. Details: unit not given here. The conditions noted are these: dose of antagonist that reduced the inhibition of writhing produced by 1.25 mg/kg morphine sulfate to 50%, subcutaneous, 20 min before acetic acid. Here is the method: In order to determine in vivo opioid receptor antagonism, the mouse writhing analgesis test was used. Test compounds were measured for their ability to block morphine-induced analgesia.
Five CF-1 male mice (Charles River, Portage, Mich.), weighing approximately 20 g after being fasted overnight, were observed simultaneously for the writhing response. The writhing response was defined as a contraction of the abdominal musculature, followed by the extension of the hind limbs, and was induced by the intraperitoneal adminstration of 0.6% acetic acid in a volumne of 1 ml/100 g body weight. The observation period was 10 min. in duration, beginning 5 min. after injection of acetic acid. The percent inhibition of writhing was calculated from the average number of writhes in the control (non-drug) group. Each data point is the mean (±standarderror) for five mice. The ED50 was defined as the dose of agonist that inhibited mean writhing by 50%. […] Each mouse was only used once. All drugs were administered subcutaneously (1 ml/100 g bwt) 20 min. before the injection of acetic acid.
For orientation: Writhing tests count abdominal constrictions after an irritant is injected.

The mark [2] stands for this setting: 20 min, read-out: % displacement at 10 nM, 10 nM test compound, [3H] naloxone 0.5 nM.
Where [3] appears, read: 20 min, read-out: % displacement at 100 nM, 100 nM test compound, [3H] naloxone 0.5 nM.
[4] abbreviates: 20 min, 10 nM test compound, [3H] naloxone 0.5 nM, read-out: % displacement at 10 nM.
The mark [5] stands for this setting: [3H] naloxone 0.5 nM, pH 7.4, 37° C., 20 min.

Counter-ions that a name gives are not always drawn. Like-named read-outs stand apart in the source and are kept apart here. Where only a bound is given, the exact number is not on record here.

We go through eleven compounds from patent publication US5250542A, “Peripherally selective piperidine carboxylate opioid antagonists” (Eli Lilly and Company, priority 1992, dated 1993).

What is called Ki is a measure of affinity in units of concentration, obtained from inhibition or displacement. As a reminder, the ED50 is the dose that gives a 50% effect, or the effect in half of the subjects.

T3 sequence (P42866 whole entry): as above
T1 sequence (P33535 whole entry): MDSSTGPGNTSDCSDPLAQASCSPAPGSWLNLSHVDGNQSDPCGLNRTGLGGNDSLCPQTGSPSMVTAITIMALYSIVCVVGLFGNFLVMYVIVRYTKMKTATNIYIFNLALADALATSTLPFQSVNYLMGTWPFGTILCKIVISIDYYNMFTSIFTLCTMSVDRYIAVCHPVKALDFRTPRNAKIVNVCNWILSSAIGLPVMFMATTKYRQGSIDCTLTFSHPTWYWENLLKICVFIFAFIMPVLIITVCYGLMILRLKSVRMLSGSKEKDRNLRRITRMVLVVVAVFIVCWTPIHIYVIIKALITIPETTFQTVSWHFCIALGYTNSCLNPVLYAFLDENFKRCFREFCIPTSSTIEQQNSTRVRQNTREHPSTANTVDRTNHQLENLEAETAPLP

`C[C@H]1CN(CC(Cc2ccccc2)C(=O)NCCCC(N)=O)CC[C@@]1(C)c1cccc(O)c1` (stereo partly drawn) [Example 63, 4-[[3-[4-(3-hydroxyphenyl)-3,4-dimethyl-1-piperidinyl]-2-(phenylmethyl)-1-oxopropyl]-amino]butanamide monohydrochloride]: the inhibitory constant (Ki) at mu receptor was 2 nM. The inhibition at 0.01 µM on mu receptor (setting [2]) is 89%. Also, the inhibition at 0.1 µM at mu receptor (setting [3]) came to 100%. In assay [1], the “Ratio (AD50 mouse writhing test / ED50 mouse diarrhea test)” value was 90 and the ED50 came out at 0.29 mg/kg. The compound further yielded an AD50 on opioid receptor of 26.
As to `C[C@H]1CN(CC(CC2CCCCC2)C(=O)NCCC(=O)O)CC[C@@]1(C)c1cccc(O)c1` (stereo partly drawn) [Example 35, 3-[[3-[4-(3-hydroxyphenyl)-3,4-dimethyl-1-piperidinyl]-2-(cyclohexylmethyl)-1-oxopropyl]-amino]propanoic acid hydrochloride], affinity at mu receptor was put at a Ki of 0.54 nM. The inhibition at 0.01 µM on mu receptor (setting [2]) was determined as 98%. Besides, the inhibition at 0.1 µM at mu receptor (setting [3]) is 100%. In assay [1], the “Ratio (AD50 mouse writhing test / ED50 mouse diarrhea test)” value was 667 and the ED50 turned out to be 0.06 mg/kg. Besides, the AD50 at opioid receptor is 40.
`CCOC(=O)CNC(=O)CNC(=O)C(Cc1ccccc1)CN1CC[C@@](C)(c2cccc(O)c2)[C@@H](C)C1` (relative stereo) [Example 67, [[2-[2-[4-(3-hydroxyphenyl)-3,4-dimethyl-1-piperidinyl]methyl]-3-phenyl-1-oxopropyl]-amino]acetyl]amino]acetic acid ethyl ester monohydrochloride]: on mu receptor, the Ki is 0.37 nM. Also, the inhibition at 0.01 µM at mu receptor (setting [2]) was determined as 79%. Besides, at mu receptor (setting [3]), the inhibition at 0.1 µM turned out to be 91%. Further, in assay [1], the “Ratio (AD50 mouse writhing test / ED50 mouse diarrhea test)” value stood at 36 and the ED50 was found to be 0.15 mg/kg. The compound further came in with an AD50 on opioid receptor of 5.5.
At mu receptor, `CNC(=O)CCCNC(=O)C(CC1CCCCC1)CN1CC[C@@](C)(c2cccc(O)c2)[C@@H](C)C1` (stereo partly drawn) [Example 41, N-[4-(methylamino)-4-oxobutyl]-3-[4-(3-hydroxyphenyl)-3,4-dimethyl-1-piperidinyl]-2-cyclohexylmethylpropanamide monohydrochloride] registered an inhibitory constant (Ki) of 0.39 nM. Besides, the inhibition at 0.01 µM on mu receptor (setting [2]) was 100%. For the same compound, the inhibition at 0.1 µM at mu receptor (setting [3]) was found to be 100%. Moreover, in assay [1], the “Ratio (AD50 mouse writhing test / ED50 mouse diarrhea test)” value is reported as 26 and it took a dose of 0.17 mg/kg to reach the 50% effect level (ED50). Further, the AD50 at opioid receptor worked out at 4.5.
As for `Cc1oc(=O)oc1COC(=O)CNC(=O)C(Cc1ccccc1)CN1CC[C@@](C)(c2cccc(O)c2)[C@@H](C)C1` (relative stereo) [Example 95], the inhibition at 0.01 µM at mu receptor (setting [4]) stood at 79%. Also, the inhibition at 0.1 µM at mu receptor (20 min, read-out: % displacement at 100 nM) turned out to be 94%. Moreover, in assay [1], the “Ratio (AD50 mouse writhing test / ED50 mouse diarrhea test)” value worked out at 14 and it took a dose of 0.19 mg/kg to reach the 50% effect level (ED50). On opioid receptor, this compound returned an AD50 of 2.7.
On to `CC(C)COC(=O)CNC(=O)C(Cc1ccccc1)CN1CC[C@@](C)(c2cccc(O)c2)[C@@H](C)C1` (single isomer, unassigned) [Example 97D], for which the “Ratio (AD50 mouse writhing test / ED50 mouse diarrhea test)” value in assay [1] (listed as 97D*) was 317; in assay [1] (listed as 97D**) it was 53. In addition, the “ED50 (diarrhea)” value in assay [1] (listed as 97D**) is 0.6; in assay [1] (listed as 97D*) it was 0.04. Also, the AD50 on opioid receptor (listed as 97D**, 1.25 mg/kg) is 32; at opioid receptor (listed as 97D*, 1.25 mg/kg), 12.7.
Turning to `C[C@H]1CN(CCC(C(=O)O)C2CCCCC2)CC[C@@]1(C)c1cccc(O)c1` (relative stereo) [Example 9B, hydrochloride], at mu receptor, the affinity corresponds to a Ki of 0.66 nM. The inhibition at 0.01 µM on mu receptor (setting [2]) turned out to be 90%. Also, the inhibition at 0.1 µM at mu receptor (setting [3]) is 93%. Also, in assay [1], the “Ratio (AD50 mouse writhing test / ED50 mouse diarrhea test)” value amounted to 75 and it took a dose of 0.02 mg/kg to reach the 50% effect level (ED50). At opioid receptor, this compound had an AD50 of 1.50.
Turning to `CCOC(=O)CCCNC(=O)C(Cc1ccccc1)CN1CC[C@@](C)(c2cccc(O)c2)[C@@H](C)C1` (stereo partly drawn) [Example 61, 4-[[3-[4-(3-hydroxyphenyl)-3,4-dimethyl-1-piperidinyl]-1-oxo-2-(phenylmethyl)propyl]-amino]butanoic acid ethyl ester monohydrochloride monohydrate], the inhibition at 0.01 µM at mu receptor (setting [2]) came out at 98%. Moreover, on mu receptor (setting [3]), the inhibition at 0.1 µM was 99%. On mu receptor (setting [5]), affinity was put at a Ki of 1.91 nM. In assay [1], the “Ratio (AD50 mouse writhing test / ED50 mouse diarrhea test)” value is listed as 66 and the ED50 was 0.05 mg/kg.
Regarding `C[C@H]1CN(CCC(C(=O)NCC(N)=O)c2ccccc2)CC[C@@]1(C)c1cccc(O)c1` (relative stereo) [Example 14, trans-N-(2-amino-2-oxoethyl)-4-[3,4-dimethyl-4-(3-hydroxyphenyl)-1-piperidinyl]-2-phenylbutanamide monohydrochloride monohydrate], at mu receptor, the Ki turned out to be 6.42 nM. At mu receptor (20 min, read-out: % displacement at 10 nM), the inhibition at 0.01 µM was found to be 87%. Also, the inhibition at 0.1 µM on mu receptor (setting [3]) amounted to 93%. In addition, in assay [1], the “Ratio (AD50 mouse writhing test / ED50 mouse diarrhea test)” value is on record as above 43 and the 50% effect level (ED50) was put at a dose of 0.92 mg/kg.
Turning to `CNC(=O)CNC(=O)C(CCN1CC[C@@](C)(c2cccc(O)c2)[C@@H](C)C1)c1ccccc1` (relative stereo) [Example 13, N-(methyl)-2-[[4-[4-(3-hydroxyphenyl)-3,4-dimethyl-1-piperidinyl]-2-phenyl-1-oxobutyl]amino]acetamide monohydrochloride], the inhibition at 0.01 µM on mu receptor (setting [2]) stood at 94%. On mu receptor (setting [3]), the inhibition at 0.1 µM came to 95%. The same compound showed a Ki at mu receptor (setting [5]) of 0.43 nM. Further, in assay [1], the “Ratio (AD50 mouse writhing test / ED50 mouse diarrhea test)” value is reported as above 125 and the 50% effect level (ED50) was put at a dose of 0.32 mg/kg.
For `C[C@H]1CN(CC(Cc2ccccc2)C(=O)NCC(=O)OC2CCCCC2)CC[C@@]1(C)c1cccc(O)c1` (stereo partly drawn) [Example 52, 2-[[2-(phenylmethyl)-1-oxo-3-[4-(3-hydroxyphenyl)-3,4-dimethyl-1-piperidinyl]propyl]amino]-ethanoic acid cyclohexyl ester monohydrochloride], on mu receptor (setting [4]), the inhibition at 0.01 µM was found to be 53%. Also, the inhibition at 0.1 µM at mu receptor (20 min, 100 nM test compound, [3H] naloxone 0.5 nM, read-out: % displacement at 100 nM) is 92%. Moreover, in assay [1], the “Ratio (AD50 mouse writhing test / ED50 mouse diarrhea test)” value came out at 40 and the ED50 turned out to be 0.2 mg/kg.
